Strand notation (5' to 3'): a small letter for the sugar, then the base; units joined by * are phosphorothioate-linked, units joined directly phosphodiester-linked; [ ] holds rarer units or linkages, { } end groups; capitals alone tell only the bases. k = constrained ethyl (cEt); [5mC] = 5-methylcytosine; d = 2'-deoxy (DNA)
Key:
[1] = test system: Yap1 mRNA; assay: Dose-dependent inhibition of human Yap1 in A-431 cells (Example 6, 5,000 cells per well, RTS4814); type: cell-based; conditions: for Yap1 mRNA, % UTC: 48 hours; for % UTC 148 nM / % UTC 444 nM / % UTC 1333 nM / % UTC 4000 nM: approximately 48 hours
Method in brief: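 A-431 cells (5,000/well) took up oligonucleotides by free uptake at various doses for about 48 h. Yap1 mRNA was measured by RT-PCR (RTS4814), normalised to RIBOGREEN total RNA and expressed as % untreated control; IC50 by linear regression on a log/linear plot.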

[2] = Tolerability in Balb/c mice, plasma chemistry markers (Example 11); type: in vivo; conditions: 50 mg/kg subcutaneously twice a week for four weeks
Description: (§1) Balb/c mice were treated with modified oligonucleotides selected from studies described above and evaluated for changes in the levels of various plasma chemistry markers.
(§2) Groups of male Balb/c mice at 4-6 weeks of age (obtained from Taconic) were injected subcutaneously twice a week for four weeks (for a total of 8 treatments) with 50 mg/kg of modified oligonucleotides. One group of male Balb/c mice was injected with PBS. Mice were euthanized on day 26 post start of treatment (24 hours following the final administration).

[3] = Tolerability in Balb/c mice, body and organ weights (Example 11); type: in vivo; conditions: 50 mg/kg subcutaneously twice a week for four weeks, end of study
Description: as §2
(§3) Body weights of Balb/c mice were measured at the end of the study, and the average body weight for each group is presented in the table below. Modified oligonucleotides that caused any changes in organ weights outside the expected range for modified oligonucleotides were excluded from further studies.

[4] = Tolerability in Balb/c mice, plasma chemistry markers (Example 10); type: in vivo; conditions: male Balb/c mice, 50 mg/kg subcutaneously twice a week for four weeks, day 26
Description: as §1, §2

[5] = Tolerability in Balb/c mice, body and organ weights (Example 10); type: in vivo; conditions: 50 mg/kg subcutaneously twice a week for four weeks, end of study
Description: as §2, §3

[6] = Table 55, 148 nM, free uptake, A-431 cells 5,000 cells per well, RTS4814
[7] = Table 55, 444 nM, free uptake, A-431 cells 5,000 cells per well, RTS4814
[8] = Table 55, 1333 nM, free uptake, A-431 cells 5,000 cells per well, RTS4814
[9] = Table 55, 4000 nM, free uptake, A-431 cells 5,000 cells per well, RTS4814
[10] = Table 55, A-431 cells 5,000 cells per well, free uptake, RTS4814
[11] = Table 53, A-431 cells, Yap1 mRNA, linear regression on a log/linear plot
[12] = Table 53, A-431 cells, free uptake, 148 nM, RTS4814
[13] = Table 53, A-431 cells, free uptake, 444 nM, RTS4814
[14] = Table 53, A-431 cells, free uptake, 1333 nM, RTS4814
[15] = Table 53, A-431 cells, free uptake, 4000 nM, RTS4814
[16] = Table 54, A-431 cells, Yap1 mRNA, linear regression on a log/linear plot
[17] = Table 54, A-431 cells, free uptake, 148 nM, RTS4814
[18] = Table 54, A-431 cells, free uptake, 444 nM, RTS4814
[19] = Table 54, A-431 cells, free uptake, 1333 nM, RTS4814
[20] = Table 54, A-431 cells, free uptake, 4000 nM, RTS4814

Substance: 716480 (antisense kG*k[5mC]*kA*dA*dG*dT*d[5mC]*dT*dT*dG*dT*dA*dA*kG*kT*kA) [compound 716480]
- Yap1 mRNA, % UTC [1, 6]: 80 % UTC
- Yap1 mRNA, % UTC [1, 7]: 56 % UTC
- Yap1 mRNA, % UTC [1, 8]: 38 % UTC
- Yap1 mRNA, % UTC [1, 9]: 39 % UTC
- IC50 [1, 10]: 1000 nM
- ALT [2]: 2156 U/L
- AST [2]: 844 U/L
- BUN [2]: 19 mg/dL
- TBIL [2]: 0.14 mg/dL
- Kidney weight [3]: 0.34 g
- Liver weight [3]: 2.58 g
- Spleen weight [3]: 0.10 g
- body weight [3]: 21 g

Substance: 716513 (antisense kA*kA*kT*d[5mC]*dT*dT*dA*dA*dT*d[5mC]*dT*dG*dT*kG*kG*k[5mC]) [compound 716513]
- Yap1 mRNA, % UTC [1, 6]: 82 % UTC
- Yap1 mRNA, % UTC [1, 7]: 73 % UTC
- Yap1 mRNA, % UTC [1, 8]: 39 % UTC
- Yap1 mRNA, % UTC [1, 9]: 39 % UTC
- IC50 [1, 10]: 1400 nM
- ALT [2]: 325 U/L
- AST [2]: 229 U/L
- BUN [2]: 17 mg/dL
- TBIL [2]: 0.14 mg/dL
- Kidney weight [3]: 0.41 g
- Liver weight [3]: 1.59 g
- Spleen weight [3]: 0.18 g
- body weight [3]: 25 g

Substance: 715484 (kT*kA*k[5mC]*dT*d[5mC]*dT*dT*dT*dG*dG*dA*dA*dA*k[5mC]*k[5mC]*kA; antisense) [compound 715484]
- ALT (U/L) [4]: 116 U/L
- AST (U/L) [4]: 110 U/L
- TBIL [4]: 0.15 mg/dL
- Kidney weight [5]: 0.37 g
- Liver weight [5]: 1.47 g
- Spleen weight [5]: 0.13 g
- body weight [5]: 22 g

Substance: 715415 (k[5mC]*kG*kA*dA*d[5mC]*dA*dT*dG*d[5mC]*dT*dG*dT*dG*kG*kA*kG; antisense) [compound 715415]
- IC50 [1, 11]: 1800 nM
- % UTC 148 nM [1, 12]: 84 % UTC
- % UTC 444 nM [1, 13]: 59 % UTC
- % UTC 1333 nM [1, 14]: 55 % UTC
- % UTC 4000 nM [1, 15]: 42 % UTC
- ALT [2]: 1075 U/L
- AST [2]: 701 U/L
- BUN [2]: 17 mg/dL
- TBIL [2]: 0.14 mg/dL
- Kidney weight [3]: 0.40 g
- Liver weight [3]: 1.79 g
- Spleen weight [3]: 0.17 g
- body weight [3]: 25 g

Substance: 715593 (kA*kT*kT*dT*d[5mC]*dT*dT*dT*dG*dG*d[5mC]*dA*dG*kA*kG*kA; antisense) [compound 715593]
- ALT (U/L) [4]: 628 U/L
- AST (U/L) [4]: 610 U/L
- TBIL [4]: 0.11 mg/dL
- Kidney weight [5]: 0.30 g
- Liver weight [5]: 1.12 g
- Spleen weight [5]: 0.13 g
- body weight [5]: 19 g

Substance: 716455 (antisense kG*kT*kT*dA*dT*dG*dT*dT*dT*dG*dG*dG*dT*kG*kT*kG) [compound 716455]
- Yap1 mRNA, % UTC [1, 6]: 95 % UTC
- Yap1 mRNA, % UTC [1, 7]: 70 % UTC
- Yap1 mRNA, % UTC [1, 8]: 49 % UTC
- Yap1 mRNA, % UTC [1, 9]: 25 % UTC
- IC50 [1, 10]: 1200 nM
- ALT [2]: 1089 U/L
- AST [2]: 1193 U/L
- BUN [2]: 22 mg/dL
- TBIL [2]: 0.25 mg/dL
- Kidney weight [3]: 0.32 g
- Liver weight [3]: 2.66 g
- Spleen weight [3]: 0.14 g
- body weight [3]: 21 g

Substance: 715557 (kG*kG*kA*dA*dG*dT*dT*dA*dT*dT*d[5mC]*dA*dG*k[5mC]*kA*kG; antisense) [compound 715557]
- ALT (U/L) [4]: 1755 U/L
- AST (U/L) [4]: 2377 U/L
- TBIL [4]: 0.28 mg/dL
- Kidney weight [5]: 0.31 g
- Liver weight [5]: 1.96 g
- Spleen weight [5]: 0.12 g
- body weight [5]: 21 g

Substance: 716481 (antisense kT*k[5mC]*kA*dG*d[5mC]*dA*dT*dA*dG*dA*dA*dG*dT*kA*kG*kG) [compound 716481]
- IC50 [1, 16]: 2000 nM
- % UTC 148 nM [1, 17]: 89 % UTC
- % UTC 444 nM [1, 18]: 90 % UTC
- % UTC 1333 nM [1, 19]: 58 % UTC
- % UTC 4000 nM [1, 20]: 32 % UTC
- ALT [2]: 1935 U/L
- AST [2]: 2248 U/L
- BUN [2]: 21 mg/dL
- TBIL [2]: 0.46 mg/dL
- Kidney weight [3]: 0.36 g
- Liver weight [3]: 1.99 g
- Spleen weight [3]: 0.13 g
- body weight [3]: 22 g

Substance: 715582 (kG*kT*k[5mC]*dA*dA*dG*d[5mC]*d[5mC]*dT*dG*dT*d[5mC]*dT*kG*kG*kA; antisense) [compound 715582]
- IC50 [1, 16]: > 4000 nM
- % UTC 148 nM [1, 17]: 98 % UTC
- % UTC 444 nM [1, 18]: 63 % UTC
- % UTC 1333 nM [1, 19]: 93 % UTC
- % UTC 4000 nM [1, 20]: 70 % UTC
- ALT (U/L) [4]: 2460 U/L
- AST (U/L) [4]: 2320 U/L
- TBIL [4]: 2.09 mg/dL
- Kidney weight [5]: 0.38 g
- Liver weight [5]: 1.46 g
- Spleen weight [5]: 0.16 g
- body weight [5]: 22 g

Substance: 715480 (kG*kG*kA*dA*dA*d[5mC]*d[5mC]*dA*dT*dT*dA*dT*dT*kA*k[5mC]*kT; antisense) [compound 715480]
- IC50 [1, 11]: > 4000 nM
- % UTC 148 nM [1, 12]: 91 % UTC
- % UTC 444 nM [1, 13]: 79 % UTC
- % UTC 1333 nM [1, 14]: 67 % UTC
- % UTC 4000 nM [1, 15]: 59 % UTC
- ALT (U/L) [4]: 791 U/L
- AST (U/L) [4]: 439 U/L
- TBIL [4]: 0.15 mg/dL
- Kidney weight [5]: 0.34 g
- Liver weight [5]: 1.64 g
- Spleen weight [5]: 0.12 g
- body weight [5]: 22 g

Substance: 715473 (kT*k[5mC]*kT*dT*dT*dA*dT*d[5mC]*dT*dA*dG*d[5mC]*dT*kT*kG*kG; antisense) [compound 715473]
- IC50 [1, 11]: 1300 nM
- % UTC 148 nM [1, 12]: 89 % UTC
- % UTC 444 nM [1, 13]: 67 % UTC
- % UTC 1333 nM [1, 14]: 50 % UTC
- % UTC 4000 nM [1, 15]: 30 % UTC
- ALT [2]: 3046 U/L
- AST [2]: 2861 U/L
- BUN [2]: 20 mg/dL
- TBIL [2]: 2.77 mg/dL
- Kidney weight [3]: 0.31 g
- Liver weight [3]: 1.46 g
- Spleen weight [3]: 0.09 g
- body weight [3]: 20 g

Substance: 716424 (antisense kG*k[5mC]*kA*dA*dT*dG*dG*dA*d[5mC]*dA*dA*dG*dG*kA*kA*kG) [compound 716424]
- IC50 [1, 16]: 2000 nM
- % UTC 148 nM [1, 17]: 76 % UTC
- % UTC 444 nM [1, 18]: 69 % UTC
- % UTC 1333 nM [1, 19]: 51 % UTC
- % UTC 4000 nM [1, 20]: 44 % UTC
- ALT [2]: 2077 U/L
- AST [2]: 1422 U/L
- BUN [2]: 20 mg/dL
- TBIL [2]: 0.22 mg/dL
- Kidney weight [3]: 0.36 g
- Liver weight [3]: 2.08 g
- Spleen weight [3]: 0.15 g
- body weight [3]: 23 g

Substance: 716502 (antisense k[5mC]*kA*k[5mC]*dA*dG*dT*dG*dA*dT*dT*dG*d[5mC]*dA*kT*kT*kT) [compound 716502]
- IC50 [1, 16]: 800 nM
- % UTC 148 nM [1, 17]: 73 % UTC
- % UTC 444 nM [1, 18]: 57 % UTC
- % UTC 1333 nM [1, 19]: 45 % UTC
- % UTC 4000 nM [1, 20]: 30 % UTC
- ALT [2]: 2920 U/L
- AST [2]: 1329 U/L
- BUN [2]: 17 mg/dL
- TBIL [2]: 0.27 mg/dL
- Kidney weight [3]: 0.42 g
- Liver weight [3]: 2.18 g
- Spleen weight [3]: 0.10 g
- body weight [3]: 23 g

Substance: 715558 (k[5mC]*kA*kG*dG*dA*dA*dG*dT*dT*dA*dT*dT*d[5mC]*kA*kG*k[5mC]; antisense) [compound 715558]
- IC50 [1, 16]: > 4000 nM
- % UTC 148 nM [1, 17]: 94 % UTC
- % UTC 444 nM [1, 18]: 112 % UTC
- % UTC 1333 nM [1, 19]: 80 % UTC
- % UTC 4000 nM [1, 20]: 66 % UTC
- ALT (U/L) [4]: 65 U/L
- AST (U/L) [4]: 91 U/L
- TBIL [4]: 0.16 mg/dL
- Kidney weight [5]: 0.38 g
- Liver weight [5]: 1.33 g
- Spleen weight [5]: 0.12 g
- body weight [5]: 22 g

Substance: 715609 (kT*kG*kT*dG*dT*dA*dG*dG*d[5mC]*dT*dG*dA*d[5mC]*kT*kT*kA; antisense) [compound 715609]
- ALT (U/L) [4]: 1120 U/L
- AST (U/L) [4]: 2941 U/L
- TBIL [4]: 0.67 mg/dL
- Kidney weight [5]: 0.33 g
- Liver weight [5]: 2.64 g
- Spleen weight [5]: 0.10 g
- body weight [5]: 21 g

— US11214803B2, “Modulators of YAP1 expression” (Ionis Pharmaceuticals, Inc., priority 2019, dated 2022)
